From ChEMBL document CHEMBL1201862, “PubChem BioAssay data set” (2004) come the findings set out here.

Molecules are shown by their SMILES.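 Grown in 96-well plates, cells were treated for 48 hours with each compound at five concentrations. Insufficient inhibition: endpoint recorded as highest concentration tested. At the GI50, growth is halved.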 Activity calls are given as the source filed them. Rule as the data show it: active = GI50 up to about 1.1 µM and inactive = higher.

What all share (assay): growth of human tumour cells (NCI), 48 h
Experiment [1] deals with ACHN.
Experiment [2] deals with CAKI-1.
The subject of experiment [3] is EKVX.
Experiment [4] concerns HCC 2998.
Experiment [5] relates to HCT-15.
Experiment [6] concerns HL-60.
For experiment [7], the system named is HT-29.
The test system of experiment [8] is LOX IMVI.
Experiment [9] concerns M14.
Experiment [10] relates to NCI-H460.
In experiment [11] the test system is OVCAR-3.
The subject of experiment [12] is OVCAR-5.
The subject of experiment [13] is PC-3.
For experiment [14], the system named is RXF 393.
The test system of experiment [15] is SK-MEL-2.
Experiment [16] concerns SR.
Experiment [17] concerns UACC-257.
The subject of experiment [18] is KM12.
For experiment [19], the system named is SNB-75.

As to `CCOC(=O)c1cnc2oc3ccc(O)cc3c2c1-c1ccccc1`, the GI50 is 20.9 µM (inactive) in experiment [1]; > 100 µM (inactive) in experiment [2]; 57.3 µM (inactive) in [3]; > 100 µM (inactive) in experiment [4]; 26.7 µM in experiment [5]; 14.6 µM (inactive) in [6]. Moreover, the GI50 was 71.6 µM (inactive) in [7]; 21.6 µM (inactive) in experiment [8]; 81.3 µM (inactive) in experiment [9]; 13.2 µM (inactive) in experiment [10]; > 100 µM (inactive) in experiment [11]; > 100 µM (inactive) in experiment [12]. Moreover, the GI50 is 18 µM (inactive) in experiment [13]; 41.1 µM (inactive) in experiment [14]; 15.1 µM (inactive) in experiment [15]; 22.6 µM (inactive) in experiment [16]; > 100 µM (inactive) in experiment [17].

In the case of `Cc1nc(O)c2c3c(sc2n1)CCCC3`, the GI50 in experiment [1] was 54.5 µM (inactive); in experiment [2], > 100 µM (inactive); in [3] it was 19.9 µM (inactive); in experiment [5], more than 100 µM; in experiment [6] it was > 100 µM (inactive); in [7], 54.7 µM (inactive). Further, the GI50 in experiment [18] is > 100 µM (inactive); in experiment [8], 72.4 µM (inactive); in experiment [9], > 100 µM (inactive); in experiment [10], 0.284 µM (active); in [11], > 100 µM (inactive); in experiment [12], 60.7 µM (inactive). Further, the GI50 is > 100 µM (inactive) in experiment [13]; > 100 µM (inactive) in experiment [14]; > 100 µM (inactive) in [15]; > 100 µM (inactive) in [19]; 27 µM (inactive) in [16]; > 100 µM (inactive) in experiment [17].

For the compound `O=C1CN(c2cccc(Cl)c2)C(=O)CN1CCN1CC(=O)N(c2cccc(Cl)c2)CC1=O`, the GI50 in experiment [1] is > 100 µM (inactive); in experiment [2], > 100 µM (inactive); in experiment [3], > 100 µM (inactive); in experiment [4], > 100 µM (inactive); in experiment [5], more than 100 µM; in [6], > 100 µM (inactive). The GI50 in [7], in experiment [18], in experiment [9], in [10], in experiment [11] and in experiment [12] was > 100 µM (inactive) in each case. Besides, the GI50 in [13], in experiment [14], in experiment [19], in experiment [16] and in experiment [17] was > 100 µM (inactive) throughout.

In the case of `CC(=O)c1c(O)cc(O)c(-c2c(C)cc(O)c3c2C(=O)c2cccc(O)c2C3=O)c1O`, the GI50 in experiment [1] was 12.9 µM (inactive); in experiment [3] it was 16.1 µM (inactive); in [5], 14.1 µM; in [6], 23.2 µM (inactive); in experiment [7], 17.1 µM (inactive); in experiment [18] it was 16.2 µM (inactive). Besides, the GI50 in [8] was 12.8 µM (inactive); in experiment [9], 20.3 µM (inactive); in [10], 15 µM (inactive); in [11] it was 17.6 µM (inactive); in experiment [12] it was 17.3 µM (inactive); in experiment [13] it was 11 µM (inactive). In addition, the GI50 in experiment [15] was 15.9 µM (inactive); in [19] it was 15.2 µM (inactive); in [16], 16.3 µM (inactive); in experiment [17], 19.9 µM (inactive).

`COc1cc(COC(=O)N2CSCC2C(=O)O)c([N+](=O)[O-])cc1OC` (stereo unspecified): the GI50 in experiment [1] is > 100 µM (inactive); in [3], > 100 µM (inactive); in experiment [4], > 100 µM (inactive); in experiment [5], more than 100 µM; in experiment [6] it was > 100 µM (inactive); in experiment [7] it was > 100 µM (inactive). The GI50 in experiment [18], in experiment [9], in experiment [10], in [11], in [12] and in experiment [13] was > 100 µM (inactive) throughout. Also, the GI50 in experiment [19], in experiment [16] and in [17] was > 100 µM (inactive) each time.

Regarding `O=C(O)C1C2CCC(O2)C1C(=O)NCc1cccnc1` (stereo unspecified), the GI50 in experiment [1] was > 100 µM (inactive); in experiment [2] it was > 100 µM (inactive); in experiment [3], > 100 µM (inactive); in experiment [5], more than 100 µM; in experiment [7] it was > 100 µM (inactive); in experiment [18], > 100 µM (inactive). In addition, the GI50 in [8], in [9], in experiment [10], in experiment [11], in [12] and in experiment [13] was > 100 µM (inactive) throughout. Also, the GI50 in experiment [14], in experiment [15], in [19], in experiment [16] and in experiment [17] was > 100 µM (inactive) throughout.

As to `CCN(CC)CCC(=O)c1ccc(Oc2ccc(C)cc2)cc1`, the GI50 is 21.1 µM (inactive) in [1]; 17.3 µM (inactive) in experiment [2]; 20 µM (inactive) in [3]; 19.2 µM (inactive) in [4]; 18.7 µM in experiment [5]; 18.9 µM (inactive) in [7]. For the same compound, the GI50 in [18] was 10.9 µM (inactive); in experiment [8] it was 16.7 µM (inactive); in [9], 16.6 µM (inactive); in [11] it was 17.6 µM (inactive); in experiment [12] it was 19.5 µM (inactive); in experiment [13] it was 17.9 µM (inactive). Also, the GI50 in experiment [14] is 16.4 µM (inactive); in experiment [15], 33.2 µM (inactive); in experiment [19], 20.2 µM (inactive); in experiment [16], 26.2 µM (inactive); in experiment [17] it was 19.2 µM (inactive).

With `C=C1CC[C@]2(C)[C@H](CC[C@@]34C[C@@H](CC[C@H]32)[C@@H](C(=O)O)C4)C1(C)C`, the GI50 in experiment [1] is 8.63 µM (inactive); in experiment [2], > 12.5 µM (inactive); in experiment [3] it was > 12.5 µM (inactive); in [5] it was more than 12.5 µM; in experiment [6], 4.7 µM (inactive); in [7], 5.35 µM (inactive). The GI50 was > 12.5 µM (inactive) in [18]; > 12.5 µM (inactive) in [8]; > 12.5 µM (inactive) in experiment [9]; 5.19 µM (inactive) in [10]; > 12.5 µM (inactive) in [11]; > 12.5 µM (inactive) in [12]. The GI50 is 10.3 µM (inactive) in experiment [13]; > 12.5 µM (inactive) in [14]; > 12.5 µM (inactive) in experiment [15]; 6.37 µM (inactive) in experiment [16]; > 12.5 µM (inactive) in experiment [17].

For `CCOC(=O)c1c(NS(=O)(=O)c2ccccc2)sc2c1CCCC2`, the GI50 in experiment [1] was 64.6 µM (inactive); in experiment [2], > 100 µM (inactive); in experiment [3] it was 48.4 µM (inactive); in [5], 33.7 µM; in experiment [6] it was 57.5 µM (inactive); in experiment [7] it was 39.4 µM (inactive). The GI50 in experiment [18] was 22.1 µM (inactive); in [9] it was 81.3 µM (inactive); in experiment [10] it was > 100 µM (inactive); in experiment [11] it was 22.5 µM (inactive); in experiment [12], > 100 µM (inactive); in [13] it was 39.5 µM (inactive). The GI50 in experiment [14] is > 100 µM (inactive); in experiment [15], 68.1 µM (inactive); in [19] it was > 100 µM (inactive); in [16] it was 59.8 µM (inactive); in experiment [17], 81.7 µM (inactive).

Regarding `CCOC(=O)/C(=C\c1ccc(CO)o1)P(=O)(OCC)OCC`, the GI50 is 61.1 µM (inactive) in experiment [1]; 55.7 µM (inactive) in experiment [2]; > 100 µM (inactive) in experiment [3]; > 100 µM (inactive) in experiment [4]; 18.4 µM in experiment [5]; 33.2 µM (inactive) in experiment [7]. The GI50 in experiment [18] was 33.3 µM (inactive); in experiment [8], 18.5 µM (inactive); in [9] it was 31.9 µM (inactive); in experiment [10], 17 µM (inactive); in [11] it was 18.9 µM (inactive); in experiment [12], 50 µM (inactive). Also, the GI50 in [13] was 5.43 µM (inactive); in experiment [14], 34.3 µM (inactive); in experiment [15], 25.2 µM (inactive); in experiment [19] it was 33 µM (inactive); in [16], 41.9 µM (inactive); in experiment [17], 44.6 µM (inactive).

`CC#CC(O)(C(=O)OCCCN(C)C)C1CCCCC1` (stereo unspecified): the GI50 in [1] is > 100 µM (inactive); in [3] it was > 100 µM (inactive); in experiment [4], > 100 µM (inactive); in experiment [5], more than 100 µM; in [6], > 100 µM (inactive); in [7], > 100 µM (inactive). For the same compound, the GI50 in experiment [18], in experiment [8], in experiment [9], in experiment [10], in [11] and in experiment [12] was > 100 µM (inactive) in each case. Moreover, the GI50 in experiment [13], in [14], in experiment [15], in [19], in experiment [16] and in experiment [17] was > 100 µM (inactive) in each case.

For `C=C(C)[C@@H]1CC[C@]2(COC(C)=O)CC[C@]3(C)[C@H](CC[C@@H]4[C@@]5(C)CC[C@H](OC(C)=O)C(C)(C)[C@@H]5CC[C@]43C)[C@@H]12` [BETULIN DIACETATE], the GI50 in experiment [1] was > 50 µM (inactive); in experiment [4] it was 0.857 µM (active); in experiment [5], more than 50 µM; in [6], > 33.1 µM (inactive); in experiment [7], > 50 µM (inactive); in experiment [8] it was > 50 µM (inactive). In addition, the GI50 was > 50 µM (inactive) in experiment [9]; 3.01 µM (inactive) in experiment [11]; > 50 µM (inactive) in experiment [13]; 0.0385 µM (active) in experiment [14]; > 50 µM (inactive) in [15]; > 50 µM (inactive) in experiment [19]. For the same compound, the GI50 in experiment [16] and in experiment [17] was > 50 µM (inactive) each time.
